Results taken from patent US11389465B2, “Phosphorylated hexaacyl disaccharides (PHADs) for treating or preventing infections” (VANDERBILT UNIVERSITY, priority 2017, dated 2022).
Entries after “also recorded” stand apart in the source; their conditions may differ.

Key:
P. aeruginosa = details: head to head with MPLA, 20 μg/mouse
[1] = tested on: Gram negative and Gram positive bacterial infections; details: mice primed with LPS; cited from earlier work

Row | Compound | efficacy at augmenting host resistance to bacterial infection compared with MPLA (P. aeruginosa) | resistance to infection of primed mice [1]
1 | CCCCCCCCCCCCCC(=O)OC(CCCCCCCCCCC)CC(=O)NC1C(OCC2OC(O)C(NC(=O)CC(O)CCCCCCCCCCC)C(OC(=O)CC(O)CCCCCCCCCCC)C2O)OC(CO)C(OP(=O)(O)O)C1OC(=O)CC(CCCCCCCCCCC)OC(=O)CCCCCCCCCCCCC.N (stereo not shown) [PHAD, phosphorylated hexaacyl disaccharide] | as effective as MPLA | 
2 | Lipopolysaccharide [LPS] |  | improved resistance to Gram negative and Gram positive bacterial infections
3 | CCCCCCCCCCCCCC(=O)OC(CCCCCCCCCCC)CC(=O)NC1C(O)OC(COC2OC(CO)C(OP(=O)(O)O)C(OC(=O)CC(CCCCCCCCCCC)OC(=O)CCCCCCCCCCCCC)C2NC(=O)CC(CCCCCCCCCCC)OC(=O)CCCCCCCCCCCCC)C(O)C1O.N (stereo not shown) [3D(6-acyl) PHAD, 3-D (6-acyl) phosphorylated hexaacyl disaccharide] | as effective as MPLA | 
4 | CCCCCCCCCCCCCC(=O)OC(CCCCCCCCCCC)CC(=O)NC1C(OCC2OC(O)C(NC(=O)CC(O)CCCCCCCCCCC)C(O)C2O)OC(CO)C(OP(=O)(O)O)C1OC(=O)CC(CCCCCCCCCCC)OC(=O)CCCCCCCCCCCCC.N (stereo not shown) [3D-PHAD, 3-deacyl phosphorylated hexaacyl disaccharide] | as effective as MPLA; also recorded: as efficacious as MPLA | 
